Test results published in patent US10342796B2, “Acrylanilide derivative, preparation method, and applications thereof in pharmacy” (Ancureall Pharmaceutical (Shanghai) Co., Ltd., priority 2015, dated 2019).
Read-outs that look alike come from different tables or passages of the source.

Legend:
Experiment in all cases: Growth inhibition GI50 in vitro (CCK8/MTT, 72 h)
[1] = system: NCI-H1781 (HER2 exon 20 G776VC mutation); format: cell-based; settings: Homo sapiens, NCI-H1781; Table 16; 1000 nM to 0.03 nM serial dilution; read-out: GI50 H1781 (HER2 G776VC)
Experimental: (§1) Human lung adenocarcinoma cell line Calu-3 (ATCC) was cultured with 1×MEM complete medium (10% FBS, 1% double-antibiotics, 1% NEAA (Gibco), 2 mM glutamine and 1 mM of sodium pyruvate). Human breast cancer cell line SK-BR-3 was cultured with McCOY'S5A complete medium (10% FBS). Human colon cancer cell line SNU1040 (HER2 V777M positive) (ATCC) and human bronchoalveolar adenocarcinoma cell line NCI-H1781 (expressing HER2 exon 20 G776VC mutation) (ATCC) were cultured with 1×RPMI1640 complete medium (10% FBS), respectively.
(§2) Adherent cells were digested with 0.25% pancreatin-EDTA (Gibco). The suspension cells were collected by centrifugation. The supernatant was discard and the cell pellet was resuspended and counted. Different cell concentrations (5˜10×10^4 cells/mL) were prepared according to the growth cycle of each cell line and then seeded on a 96-well plate (Corning), 100 μL/well. The cells were incubated over night at 37° C., 5% CO2. The compounds were added to the cells on the second day with 2 wells in parallel. The final concentration of organic solvent shall not exceed 1%. The cells were continually incubated for 72 h, and then subjected to MTT assay.
(§3) The present compounds and the reference compounds were dissolved with DMSO (Sigma), respectively. […] The storage concentration of compounds was 10 mM and kept at −20° C. They were diluted by 2 times or 10 times with serial dilution before using.
(§4) Dojindo CCK8 reagent kit was used as MTT assay. […] FC meter was used as microplate reader.
(§5) Adherent cell culture medium was discard and immediately replaced with fresh prepared medium which contains 10% CCK8 reagent (100 μL/well). For the suspension cells, CCK8 was directly added to 10% of the final concentration. The cells were continually incubated for 1˜4 h. When the color of control wells turned to dark yellow, the absorption value was measured at OD450 nm. The cell growth rate was calculated according to the following formula: cell growth rate (%)=100*(T−T0)/(C−T0), T=optical density of drug treatment cell well—optical density of blank control well; T0=optical density of cell well before drug treatment—optical density of blank control well; C=optical density of cell well of solvent control group—optical density of blank control well. The concentration value of 50% inhibition of cell growth (GI50) was calculated. The experiment was independently repeated 1˜3 times, and subject to biological statistical analysis.
(§6) Furthermore, the present compounds (99, 136, 205, 211, 212, 213, 216, 229, 230, 231, 232, 233 and 236) were selected to carry out growth inhibition test for HER2/ERBB2 gene amplified or high expressed or mutant tumor cells. Afatinib and AZD9291 were used for references as second- and third-generation inhibitors of EGFR.
(§7) Each compound started at 1000 nM as an initial concentration and was diluted by 2 times with serial dilution to 0.03 nM. The GI50 value of each compound was calculated according to Test Example 1.3.

[2] = system: SNU1040 (HER2 V777M positive); format: cell-based; settings: Homo sapiens; Table 16; 1000 nM to 0.03 nM serial dilution; read-out: GI50 SNU-1040 (HER2 V777M)
Experimental: as §1, §2, §3, §4, §5, §6, §7

N87 (HER2 Amp) = format: cell-based, human; settings: Homo sapiens
PC-9 (EGFR dE746-A750) = format: cell-based, human; settings: Homo sapiens
H1975 (EGFR L858R/T790M) = format: cell-based, human; settings: Homo sapiens, NCI-H1975
Calu-3 (Her2 amp) = format: cell-based; settings: Homo sapiens, Calu-3; Table 16; 1000 nM to 0.03 nM serial dilution; read-out: GI50 Calu3 (HER2 amp)
Experimental: as §1
as §2, with “The” for “Adherent cells were digested with 0.25% pancreatin-EDTA (Gibco). The”
as §3, §4
as §5, with “The concentration value of 50% inhibition of cell growth (GI50) was calculated.” left out

A549 (EGFR WT) = format: cell-based, human; settings: Homo sapiens, A549
[3] = system: SW48 (EGFR G719S positive); format: cell-based; settings: Homo sapiens, SW48; Table 15; 1000 nM to 0.03 nM serial dilution; read-out: GI50 SW48 (EGFR G719S)
Experimental: PC-9ER is an acquired Erlotinib resistance cell line of PC-9 cells developed by the investor. […] The four cell lines above were cultured with 1×RPMI1640 complete medium (supplement with 10% FBS). Human colon cancer cell line SW48 (EGFR G719S positive, ATCC). was cultured with L15 complete medium (10% FB S).
as §2, with “The” for “Adherent cells were digested with 0.25% pancreatin-EDTA (Gibco). The”
as §3, §4
as §5, with “The concentration value of 50% inhibition of cell growth (GI50) was calculated.” left out
Each compound started at 1000 nM as an initial concentration and was diluted by […] with serial dilution to 0.03 nM.

H292 (EGFR WT) = format: cell-based; settings: Homo sapiens, NCI-H292; Table 15; 1000 nM to 0.03 nM serial dilution; read-out: GI50 H292 (EGFR WT)
From the text: EGFR wild type cell lines: human epidermal cancer cell line A431 (EGFR WT, amplification and high expression, from Shanghai Cell Bank of Chinese Academy of Sciences and ATCC), NSCLC cell lines NCI-H460 (EGFR WT, Kras G61H and PI3KCA E545K mutants, ATCC) and NCI-H1299 (EGFR WT, ATCC), melanoma cell line A375 (EGFR WT and BRAF V600E mutant, from Shanghai Cell Bank of Chinese Academy of Sciences, ATCC), human lung cancer cell line NCI-H292 (EGFR WT, from human lung mucoepidermoid carcinoma/lymphatic metastasis, purchased from Shanghai Cell Bank of Chinese Academy of Sciences) were cultured with 1×RPMI1640 complete medium which was supplement with 10% FBS. NSCLC cell line A549 (EGFR WT and Kras G12S mutant, from Shanghai Cell Bank of Chinese Academy of Sciences) was cultured with 1×Ham'S F12K complete medium which was supplement with 10% FBS, 1% double-antibiotics and 2 mM glutamine.
as §2, with “The” for “Adherent cells were digested with 0.25% pancreatin-EDTA (Gibco). The”
as §3, §4
as §5, with “The concentration value of 50% inhibition of cell growth (GI50) was calculated.” left out

- GI50 [1]: 0.87 nM
- GI50 [2]: 7.21 nM
- GI50 (PC-9 (EGFR dE746-A750); Table 13, 72 h, read-out: Range of GI50 PC-9 (EGFR dE746-A750)): < 10 nM
- GI50 (PC-9 (EGFR dE746-A750); Table 15, 1000 nM to 0.03 nM serial dilution, read-out: GI50 PC-9 (EGFR dE746-A750)): 0.49 nM
- GI50 (H1975 (EGFR L858R/T790M); Table 13, 72 h, read-out: Range of GI50 H1975 (EGFR L858R/T790M)): 10 to 100 nM
- GI50 (H1975 (EGFR L858R/T790M); Table 15, 1000 nM to 0.03 nM serial dilution, read-out: GI50 H1975 (EGFR L858R/T790M)): 19.2 nM
- GI50 (Calu-3 (Her2 amp)): 0.98 nM
- GI50 (A549 (EGFR WT); Table 13, 72 h, read-out: Range of GI50 A549 (EGFR WT)): > 1000 nM
- GI50 (A549 (EGFR WT); Table 15, 1000 nM to 0.03 nM serial dilution, read-out: GI50 A549 (EGFR WT)): > 1000 nM
- GI50 [3]: 4.19 nM
- GI50 (H292 (EGFR WT)): > 1000 nM
SMILES: C=CC(=O)Nc1cc(Nc2cc(Nc3cc(C(F)(F)F)ccc3OC)ncn2)c(OC)cc1N(C)CCN(C)C [Compound 233, N-(5-(6-(2-methoxyl-5-trifluoromethyl-phenylamino)-pyrimidin-4-yl-amino)-2-((2-dimethylamino-ethyl)-methyl-amino)-4-methoxyl-phenyl)-acrylamide]
- GI50 (N87 (HER2 Amp); Table 13, 72 h, read-out: Range of GI50 N87 (HER2 Amp)): < 10 nM
- GI50 (N87 (HER2 Amp); Table 16, 1000 nM to 0.03 nM serial dilution, read-out: GI50 N87 (HER2 amp)): 0.95 nM
